Test results published in US8003595B2, “Amino acid sequences facilitating penetration of a substance of interest into cells and/or cell nuclei” (Cellectis, priority 2000, dated 2011).
Where no end group is shown, it is not given here.

Assays:
[1] = test system: H1299 cells; assay: Internalization of biotinylated peptide/S-PO complexes; assay type: cell-based, human
Description: A biotinylated/S-PO peptide or biotinylated/A-PO complex (A-PO for avidin-peroxidase) is prepared extemporaneously in two ways:
1) either in a peptide: S-PO or A-PO molar ratio of 4:1 (for example, 1.4 μg of peptide with a molecular weight of 3500 to 10 μg of S-PO; the weight of S-PO used varies depending on the peptides since their molecular weights are different).
2) or in a peptide: S-PO or A-PO molar ratio of 25:1 (for example 1.7 μg of peptide with a molecular weight of 3500 to 1 μg of S-PO).
The complexes are prepared by incubating the biotinylated peptide with S-PO or A-PO in PBS in a volume of 5 to 10 μl for 15 minutes at laboratory temperature. They are then diluted in 1 ml of complete culture medium, filtered on a 0.2 micron membrane and incubated with the cells for 4 hours. The cells are then washed three times with PBS.
To study the penetration of the complexes under a microscope, the cells are fixed as before for 15 minutes in ethanol at −20° C., they are washed with PBS, and the activity of the internalized peroxidase is shown by diaminobenzidine in the presence of H2O2. To measure the quantity of peptide/S-PO or A-PO complexes internalized, the cells are trypsinized, transferred into microtubes and counted. They are washed twice by centrifugation, then the residue is suspended in 200 μl of lysis buffer (Tris buffer, 0.1 M, pH8, 0.5% Nonidet). After 15 minutes, the peroxidase contained in the lysis buffer is dosed onto 96-well plates with ortho-dianisidine and H2O2 by comparison with a standard curve for S-PO. The reading is taken at 450 nm. The quantity contained in the different samples is expressed in picograms (pg) per 10^4 cells.
Table 7 below reports the results of evaluating the influence of SEQ ID NO: 1 on the penetration of peptides coupled to SEQ ID NO: 1 into H1299 cells, where
Concentration a: 25 peptides to one molecule of S-PO (1 μg),
Concentration b: 4 peptides to one molecule of S-PO (10 μg).

[2] = test system: cells; assay: Penetration of biotinylated peptides inside cells (microscopy, S-PO coloration); assay type: cell-based; settings: biotinylated peptides 50 to 6 μg/ml, 1-18 hours, revealed with S-PO
Description: The cells are cultivated in the presence of the different peptides carrying, on the N-terminal side, biotin in decreasing concentrations (50 to 6 μg/ml) in the culture medium for variable times (1-18 hours).
At the end of the culture, the cells are washed three times with PBS (0.15 M NaCl buffered with 0.01 M potassium phosphate buffer pH 7.4) then fixed 15 minutes in ethanol at −20° C. The penetration of the peptide is evaluated after incubation for 30 minutes with streptavidin conjugated with peroxidase (abbreviated S-PO for streptavidin-peroxidase). Then, the S-PO is eliminated, and the cells are washed. […] With the other peptides, positive colorations, but of variable intensity, were noted.

[3] = Conc. a: 25 peptides to one molecule of S-PO (1 μg)
[4] = Conc. b: 4 peptides to one molecule of S-PO (10 μg)
[5] = peptide: S-PO complexes of 4:1, peptide concentration of 1 μg

Substance	S-PO internalized [1, 3]	S-PO internalized [1, 4]	intracellular cytochemical coloration [2]	S-PO internalized [1, 5]
SEQ ID NO: 6: Peptide containing part of CDR2 and CDR3 regions of monoclonal murine antibody F4.1 (TYYSDTVKGRFTRQKYNKRA; Mus musculus x Rattus norvegicus)	1 pg/10^4 cells	130 pg/10^4 cells	Faint coloration	
SEQ ID NO: 7: Peptide containing SEQ ID NO: 1 and SEQ ID NO: 6 (VKRGLKLTYYSDTVKGRFTRQYNKRA; Homo sapien - Mus musculus - Rattus norvegicus)	240 pg/10^4 cells	220 pg/10^4 cells	intense coloration	
SEQ ID NO: 8: Peptide corresponding to the hypervariable CD3 region of human anti-DNA monoclonal antibody RTT79 (VRRSGRVVVPAAPRNRD; listed as Homo sapiens)	50 pg/10^4 cells	1310 pg/10^4 cells	Faint coloration	
SEQ ID NO: 9: Peptide containing SEQ ID NO: 1 and SEQ ID NO: 8 (VKRGLKLVRRSGRVVVPAAPRNRD; listed as Homo sapiens)	340 pg/10^4 cells	8280 pg/10^4 cells	intense coloration	
SEQ ID NO: 17: Peptide reacting with heparin derived from human lipoprotein E (LRKRLLRD; listed as Homo sapiens)			do not give any positive intracellular cytochemical coloration	3 pg/10^4 cells
SEQ ID NO: 18: Peptide reacting with heparin derived from the amino acid sequence of agrine (KSRK; listed as Homo sapiens)			do not give any positive intracellular cytochemical coloration	3 pg/10^4 cells
SEQ ID NO: 19: Dimer of SEQ ID NO: 18 (KSRKKSRK; not fully specified; listed as Homo sapiens)			Faint coloration	167 pg/10^4 cells
VKRGLKL (listed as Homo sapiens) [SEQ ID NO: 1, Peptide reacting with heparin from human lipoprotein B]			do not give any positive intracellular cytochemical coloration	3 pg/10^4 cells
